Where a name gives a salt, the structure may show the parent alone.
Molecular target: T1, Human IP6K1 (Homo sapiens, UniProt Q92551)
T1 construct: GST (N, cleaved yes); made in house; host or cells: C43 E. coli, pGEX-6P-2
Experiment: IP6K1 high-throughput screen of the Sigma LOPAC (ADP-Glo Max, single point);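 note: final compound concentration 10µM in 5% DMSO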
Type: biochemical

[1] = LOPAC single-point screen, ADP-Glo Max luminescence raw signal per well
[2] = LOPAC single-point screen, Z-score relative to plate average and StDev
[3] = LOPAC single-point screen, ADP-Glo Max raw signal per well
[4] = LOPAC single-point screen, Z-score from raw signal with plate average and StDev
[5] = LOPAC single-point screen, Z-score against plate average and StDev
[6] = Sigma LOPAC single-point screen, ADP-Glo Max raw signal per well
[7] = Sigma LOPAC single-point screen, Z-score from plate average and StDev
[8] = LOPAC single-point screen, Z-score from plate average and StDev

T1 sequence (Q92551 whole entry): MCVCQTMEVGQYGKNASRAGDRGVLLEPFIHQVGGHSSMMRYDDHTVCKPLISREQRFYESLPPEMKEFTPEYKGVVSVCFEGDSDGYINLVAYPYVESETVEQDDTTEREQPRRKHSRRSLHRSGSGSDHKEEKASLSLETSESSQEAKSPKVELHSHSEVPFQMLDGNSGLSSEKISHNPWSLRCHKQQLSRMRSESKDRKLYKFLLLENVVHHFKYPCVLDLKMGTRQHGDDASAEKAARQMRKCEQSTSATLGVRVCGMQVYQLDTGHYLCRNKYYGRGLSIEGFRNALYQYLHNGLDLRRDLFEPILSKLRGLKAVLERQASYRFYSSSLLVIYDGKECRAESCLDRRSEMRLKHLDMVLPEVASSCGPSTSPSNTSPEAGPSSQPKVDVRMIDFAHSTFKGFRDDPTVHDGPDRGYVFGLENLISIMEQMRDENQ

## C[C@@H]1O[C@@H](O[C@H]2C[C@@H](O)[C@]3(CO)[C@H]4[C@H](O)C[C@]5(C)[C@@H]([C@@H]6COC(=O)C6)CC[C@]5(O)[C@@H]4CC[C@]3(O)C2)[C@H](O)[C@H](O)[C@H]1O [Dihydroouabain]
[1]
  Raw Signal: 48437
[2]
  Z-score: -1.3668

## COC(=O)C(C)(N)Cc1ccc(O)cc1.Cl (racemic)
[3]
  Raw Signal: 52897
[4]
  Z-score: -0.2515

## O=C(O)CCCc1ccc(N(CCCl)CCCl)cc1 [Chlorambucil]
[3]
  Raw Signal: 57590
[5]
  Z-score: -0.05691

## O=C(O)c1cc(O)cc(C(=O)O)n1 [Chelidamic acid]
[3]
  Raw Signal: 56074
[4]
  Z-score: -0.3239

## Nc1ccc(N2C(=O)c3ccccc3C2=O)c(Cl)c1 [N-(4-Amino-2-chlorophenyl)phthalimide]
[6]
  Raw Signal: 61206
[7]
  Z-score: 0.58

## COC(=O)N1CCN(C(=O)Cc2ccc(Cl)c(Cl)c2)C(CN2CCCC2)C1.O=C(O)/C=C/C(=O)O (centres unmarked) [GR-89696 fumarate]
[3]
  Raw Signal: 54440
[4]
  Z-score: -0.1477

## CC(=O)c1c(O)c(C)c(O)c(Cc2c(O)c3c(c(C(=O)/C=C/c4ccccc4)c2O)OC(C)(C)C=C3)c1O [Rottlerin]
[3]
  Raw Signal: 55469
[4]
  Z-score: -0.1078

## CCCCCCCC/C=C\CCCCCCCC(=O)O [Oleic Acid]
[3]
  Raw Signal: 53829
[4]
  Z-score: -0.09485

## CCCc1c(OCCCOc2ccc(OCC(=O)O)cc2)ccc(C(C)=O)c1O [L-165,041]
[6]
  Raw Signal: 57961
[7]
  Z-score: 0.5674

## CNCC[C@@H](Oc1ccc(C(F)(F)F)cc1)c1ccccc1.Cl [R-(-)-Fluoxetine hydrochloride]
[1]
  Raw Signal: 63921
[8]
  Z-score: 1.778

## NC(CO)(CO)CO.O=C(c1ccccc1)c1ccc2n1CCC2C(=O)O (centres unmarked) [Ketorolac tris salt]
[1]
  Raw Signal: 48098
[2]
  Z-score: -1.058

## C=CCN1CC[C@]23c4c5ccc(O)c4O[C@H]2C(=O)CC[C@@]3(O)[C@H]1C5 [Naloxone hydrochloride]
[3]
  Raw Signal: 55041
[5]
  Z-score: 0.1088

## CC(=O)OCC1=C(C(=O)O)N2C(=O)[C@@H](NC(=O)Cc3cccs3)[C@H]2SC1 [Cephalothin sodium]
[3]
  Raw Signal: 58709
[5]
  Z-score: 0.1402

## Nc1nc2c(ncn2COCCO)c(=O)[nH]1 [Acyclovir]
[1]
  Raw Signal: 53270
[2]
  Z-score: -0.8178

## CNc1ccc2oc(C[C@H]3O[C@@]4(CC[C@H]3C)O[C@H]([C@H](C)C(=O)c3ccc[nH]3)[C@H](C)C[C@H]4C)nc2c1C(=O)O [Calcimycin]
[1]
  Raw Signal: 66206
[8]
  Z-score: 1.461

## C[C@]12CCC(=O)C=C1CC[C@@H]1[C@@H]2[C@@H](O)C[C@@]2(C)[C@H]1CC[C@]2(O)C(=O)CO [Hydrocortisone]
[3]
  Raw Signal: 54144
[4]
  Z-score: -0.2078

## NCCCP(=O)(O)O [3-Aminopropylphosphonic acid]
[3]
  Raw Signal: 56234
[4]
  Z-score: -0.2957

## O=[N+]([O-])c1cc(O)c(O)c([N+](=O)[O-])c1 [3,5-Dinitrocatechol]
[3]
  Raw Signal: 56696
[5]
  Z-score: 0.3105

## CC(C)=CCC/C(C)=C/CC/C(C)=C/CSc1ccccc1C(=O)O [Farnesylthiosalicylic acid]
[1]
  Raw Signal: 51239
[2]
  Z-score: -0.7977

## O=C(/C=C/c1ccc(O)c(O)c1)OCCc1ccccc1 [Caffeic acid phenethyl ester]
[1]
  Raw Signal: 53915
[2]
  Z-score: -0.7042

## CCCCCCCCCCCCCCC[C@H](O)[C@H](N)CO (racemic) [DL-erythro-Dihydrosphingosine]
[3]
  Raw Signal: 54857
[5]
  Z-score: -0.06296

## O=c1[nH]c2cc(C(F)(F)F)ccc2n1-c1cc(C(F)(F)F)ccc1O [NS-1619]
[1]
  Raw Signal: 51434
[2]
  Z-score: -0.4973

## CCOC(=O)C1=C(C)NC(C)=C(C(=O)OC)C1c1cccc([N+](=O)[O-])c1 (centres unmarked) [Nitrendipine]
[6]
  Raw Signal: 58110
[7]
  Z-score: 0.6245

## CCCN1CCOC2c3cc(O)ccc3OCC21.Cl (racemic) [(±)-PD 128,907 hydrochloride]
[1]
  Raw Signal: 53572
[2]
  Z-score: -0.4763

## NCCCC(=O)O [GABA]
[6]
  Raw Signal: 63549
[7]
  Z-score: 0.9926

## CC(C)C[C@H]1C(=O)N2CCC[C@H]2[C@]2(O)O[C@](NC(=O)[C@@H]3C=C4c5cccc6[nH]c(Br)c(c56)C[C@H]4N(C)C3)(C(C)C)C(=O)N12.CS(=O)(=O)O [(+)-Bromocriptine methanesulfonate]
[3]
  Raw Signal: 59214
[5]
  Z-score: 0.2291

## N#CC(=C(/N)Sc1ccccc1N)/C(C#N)=C(/N)Sc1ccccc1N [U0126]
[3]
  Raw Signal: 55334
[4]
  Z-score: -0.134

## CC(C)C(=O)c1c(C(C)C)nn2ccccc12 [Ibudilast]
[3]
  Raw Signal: 53701
[4]
  Z-score: -0.2977

## Cl.N[C@@H](Cc1cnc[nH]1)C(=O)O [L-Histidine hydrochloride]
[6]
  Raw Signal: 61451
[7]
  Z-score: 1.276

## O=C(O)c1cc[c]([Hg][Cl])cc1 [4-Chloromercuribenzoic acid]
[3]
  Raw Signal: 56908
[4]
  Z-score: -0.177

## Nc1ncnc2c1ncn2[C@@H]1O[C@H](CO)[C@@H](O)[C@H]1O [Adenosine]
[3]
  Raw Signal: 56689
[4]
  Z-score: -0.2156

## Cl.O[Si](CCCN1CCCCC1)(c1ccc(F)cc1)C1CCCCC1 (centres unmarked)
[3]
  Raw Signal: 52920
[4]
  Z-score: -0.4564

## CC(C)NC(C)Cc1ccc(I)cc1 (centres unmarked) [Iofetamine hydrochloride]
[3]
  Raw Signal: 55439
[5]
  Z-score: 0.1757

## C[N+](C)(C)CCCCCCCCCC[N+](C)(C)C.[Br-].[Br-] [Decamethonium dibromide]
[1]
  Raw Signal: 52379
[2]
  Z-score: -0.5662

## Nc1ccncc1 [4-Aminopyridine]
[3]
  Raw Signal: 56638
[4]
  Z-score: -0.2246

## CCCCCCCCCCCCC/C=C/[C@@H](O)[C@@H](N)CO [Sphingosine]
[1]
  Raw Signal: 64012
[8]
  Z-score: 1.552

## CN1CCN2c3ccccc3Cc3ccccc3C2C1 (centres unmarked) [Mianserin hydrochloride]
[1]
  Raw Signal: 51451
[2]
  Z-score: -0.4944

## O=C1C(SCCO)=C(SCCO)C(=O)c2ccccc21 [NSC 95397]
[3]
  Raw Signal: 55516
[5]
  Z-score: 0.07087

## C[C@@](Cc1ccc(O)c(O)c1)(NN)C(=O)O [S-(-)-Carbidopa]
[3]
  Raw Signal: 55065
[5]
  Z-score: -0.02072

## O=C(O)[C@@H]1CCN1 [L-azetidine-2-carboxylic acid]
[1]
  Raw Signal: 54831
[2]
  Z-score: -0.5428

## COc1ccc2c(c1)[C@@]13CCCC[C@H]1[C@@H](C2)NCC3.Cl [3-Methoxy-morphanin hydrochloride]
[3]
  Raw Signal: 54071
[5]
  Z-score: -0.05419

## COc1cccc2c1[C@@H]1CN(CCCCn3c(=O)[nH]c4c(sc5ncc(-c6ccccc6)nc54)c3=O)C[C@@H]1CO2 [Fiduxosin hydrochloride]
[3]
  Raw Signal: 56814
[5]
  Z-score: 0.3345

## CCOC(=O)C(C)(C)Oc1ccc(Cl)cc1 [Clofibrate]
[3]
  Raw Signal: 58171
[5]
  Z-score: 0.04542

## CCN(c1nc(N)c(C(=O)NC(=N)N)nc1Cl)C(C)C [5-(N-Ethyl-N-isopropyl)amiloride]
[3]
  Raw Signal: 57414
[5]
  Z-score: -0.08791

## CCN(CC)C(=O)N[C@H]1C[C@@H]2c3cccc4[nH]cc(c34)C[C@H]2N(C)C1 [R(+)-Terguride]
[6]
  Raw Signal: 59619
[7]
  Z-score: 0.6985

## OCCN1CCN(CCCN2c3ccccc3Sc3ccc(Cl)cc32)CC1 [Perphenazine]
[6]
  Raw Signal: 57078
[7]
  Z-score: 0.4511

## O=C(Nc1cccc(C(=O)Nc2ccc(S(=O)(=O)O)c3cc(S(=O)(=O)O)cc(S(=O)(=O)O)c23)c1)Nc1cccc(C(=O)Nc2ccc(S(=O)(=O)O)c3cc(S(=O)(=O)O)cc(S(=O)(=O)O)c23)c1 [NF 023]
[1]
  Raw Signal: 39481
[2]
  Z-score: -2.506

## O=C1Nc2ccc(I)cc2/C1=C/c1cc(Br)c(O)c(Br)c1 [GW5074]
[1]
  Raw Signal: 51521
[2]
  Z-score: -0.7405

## C[C@]12CCC(=O)C=C1CC[C@@H]1[C@@H]2C(=O)C[C@@]2(C)[C@H]1CC[C@]2(O)C(=O)CO [Cortisone]
[6]
  Raw Signal: 65066
[7]
  Z-score: 1.26

## Cl.O=C(O)C1=CCCN(CCON=C(c2ccccc2)c2ccccc2)C1 [NO-711 hydrochloride]
[6]
  Raw Signal: 58704
[7]
  Z-score: 0.7243

## NC(CP(=O)(O)O)C(=O)O (racemic) [(±)-2-Amino-3-phosphonopropionic acid]
[1]
  Raw Signal: 53469
[2]
  Z-score: -0.7827

## O=C(O)CCC(C(=O)O)N1C(=O)c2ccccc2C1=O [L-Glutamic acid, N-phthaloyl-]
[6]
  Raw Signal: 59775
[7]
  Z-score: 0.9042

## CN(C)CC/C=C1/c2ccccc2Sc2ccc(Cl)cc21 [Chlorprothixene hydrochloride]
[6]
  Raw Signal: 61517
[7]
  Z-score: 0.6347

## O=c1[nH]c2ccccc2n1C1CCN(CCCC(c2ccc(F)cc2)c2ccc(F)cc2)CC1 [Pimozide]
[3]
  Raw Signal: 53926
[5]
  Z-score: -0.07855

## O=C(O)/C=C/c1ccc(O)c(O)c1 [Caffeic Acid]
[3]
  Raw Signal: 56687
[4]
  Z-score: -0.216

## O=C(O)c1cc(O)c2ccc(Cl)cc2n1 [7-Chlorokynurenic acid]
[3]
  Raw Signal: 53866
[4]
  Z-score: -0.2642

## (+)-Cyclazocine
[3]
  Raw Signal: 53235
[4]
  Z-score: -0.3924

## O=c1cc(-c2ccc(O)cc2)oc2cc(O)cc(O)c12 [Apigenin]
[1]
  Raw Signal: 54339
[2]
  Z-score: -0.6295

## CCCNCC(O)COc1ccccc1C(=O)CCc1ccccc1 (centres unmarked) [Propafenone hydrochloride]
[3]
  Raw Signal: 54187
[5]
  Z-score: -0.0347

## O=C1CC2(CCCC2)CC(=O)N1CCCCN1CCN(c2ncccn2)CC1 [Buspirone hydrochloride]
[6]
  Raw Signal: 60893
[7]
  Z-score: 0.5248

## Cc1ccccc1/C=C/C1=NCCN1 [Metrazoline oxalate]
[1]
  Raw Signal: 51543
[2]
  Z-score: -0.479
